# Measurements reported in patent publication US20240174690A1, “ANNULATED 2-AMINO-3-CYANO THIOPHENES AND DERIVATIVES FOR THE TREATMENT OF CANCER” (BOEHRINGER INGELHEIM INTERNATIONAL GMBH, priority 2021, published 2024).
# pIC50: −log10 of the molar value. Where two headings read alike, the source gives them in different places.
# Experiments:
# [1] = Solubility measurement (DMSO solution method), McIlvaine buffer pH 4.5 or 6.8; type: physicochemical; conditions: DMSO stock diluted to 250 μM, 24 h shaking at ambient temperature; for solubility at 24 h: aqueous buffer, kinetic from dmso stock
# Summary of the method: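 DMSO stock diluted into McIlvaine buffer, pH 4.5 or 6.8, to 250 µM final, shaken 24 h at ambient temperature. Precipitate removed by filtration; filtrate quantified by LC-UV against a fully dissolved reference in acetonitrile/water 1:1.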
# AsPC-1 cells = assay: AsPC-1 CTG proliferation assay (120 h) (pancreatic cancer, G12D); type: cell-based
# Summary of the method: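 AsPC-1 cells (KRAS G12D), 2000/well in RPMI with 10% FCS, seeded overnight, then treated with compound for 120 h at 37 °C. Viability by CellTiter-Glo luminescence as percent of DMSO control. IC50 from a four-parameter non-linear fit.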
# LOVO cells = assay: LOVO CTG proliferation assay (120 h) (CRC, G13D); type: cell-based; conditions: CTG 120 h
# Summary of the method: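 LOVO cells, 1000 per well in DMEM + 10% FCS, were plated overnight and then dosed with compound from DMSO stock. After 120 h at 37 °C, viability was read by CellTiter-Glo luminescence as a percentage of DMSO controls. IC50 was derived by four-parameter non-linear regression.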
# [2] = test system: KRAS G12C-dependent Ba/F3 cells; assay: Ba/F3 proliferation assay, KRAS G12C; type: cell-based; conditions: AlamarBlue
# Summary of the method: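 Ba/F3 cells were retrovirally transduced with KRAS G12 mutant vectors, puromycin-selected (1 μg/mL) and grown without IL-3 to make them KRAS-dependent. Compounds were tested in technical duplicates, viability was read by AlamarBlue fluorescence, and values came from curve fitting.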
# [3] = McIlvaine buffer pH 4.5, read-out: solubility pH 4.5
# [4] = McIlvaine buffer pH 6.8, read-out: solubility pH 6.8
SMILES,"solubility at 24 h [1, 3]","solubility at 24 h [1, 4]","pIC50 (AsPC-1 cells; Homo sapiens, ASPC1)",pIC50 (LOVO cells; Homo sapiens),"pIC50 ([2]; Mus musculus, BaF3, 72 h)",solubility pH 4.5 ([1]; McIlvaine buffer pH 4.5),solubility pH 6.8 ([1]; McIlvaine buffer pH 6.8),pIC50 (AsPC-1 cells),pIC50 (LOVO cells),pIC50 ([2]; 72 h)
C[C@H](Oc1cc(N2CCNC3(COC3)C2)nc(-c2onc3c2CCC[C@@]32CCCc3sc(N)c(C#N)c32)n1)[C@@H]1CCCN1C [I-4],> 148 µg/mL,> 140 µg/mL,7.19,6.69,7.16,,,,,
C[C@H](Oc1nc(-c2onc3c2CCC[C@@]32CCCc3sc(N)c(C#N)c32)cc(N2CCNC3(CC3)C2)n1)[C@@H]1CCCN1C [I-2],> 142 µg/mL,> 131 µg/mL,,,6.31,,,,,
C[C@H](Oc1cc(-c2ccn(C)n2)nc(-c2onc3c2CCC[C@@]32CCCc3sc(N)c(C#N)c32)n1)[C@@H]1CCCN1C [I-21],,,,,,110 μg/ml,33 μg/ml,5.53,6.89,8.22
C[C@H]1CN(C)CCCN1c1nc(-c2onc3c2CCC[C@@]32CCCc3sc(N)c(C#N)c32)cc(N2CCN(C)C3(CC3)C2)n1 [I-42],> 141 µg/mL,99 µg/mL,,,6.06,,,,,
C[C@H](Oc1cc(-c2ccn3ncnc3c2)nc(-c2onc3c2CCC[C@@]32CCCc3sc(N)c(C#N)c32)n1)[C@@H]1CCCN1C [I-33],8 µg/mL,4 µg/mL,5.43,6.24,7.85,,,,,
Cc1nc(-c2cc(O[C@@H](C)[C@@H]3CCCN3C)nc(-c3onc4c3CCC[C@@]43CCCc4sc(N)c(C#N)c43)n2)cs1 [I-24],68 µg/mL,< 1 µg/mL,5.46,7.00,8.05,,,,,
C[C@H](Oc1cc(-c2ccn(CC(C)(C)O)n2)nc(-c2onc3c2CCC[C@@]32CCCc3sc(N)c(C#N)c32)n1)[C@@H]1CCCN1C [I-26],,,5.65,6.55,7.77,,,,,
C[C@H](Oc1cc(-n2ccc(C(=O)N[C@H]3CCOC3)n2)nc(-c2onc3c2CCC[C@@]32CCCc3sc(N)c(C#N)c32)n1)[C@@H]1CCCN1C [I-57],,,6.56,8.10,9.00,,,,,
C[C@H](O)Cn1ccc(-c2cc(O[C@@H](C)[C@@H]3CCCN3C)nc(-c3onc4c3CCC[C@@]43CCCc4sc(N)c(C#N)c43)n2)n1 [I-31],> 128 µg/mL,118 µg/mL,,,8.05,,,,,

# The next lines start with results.
"solubility at 24 h [1, 3]","solubility at 24 h [1, 4]","pIC50 (AsPC-1 cells; Homo sapiens, ASPC1)",pIC50 (LOVO cells; Homo sapiens),"pIC50 ([2]; Mus musculus, BaF3, 72 h)",SMILES,solubility pH 4.5 ([1]; McIlvaine buffer pH 4.5),solubility pH 6.8 ([1]; McIlvaine buffer pH 6.8),pIC50 (AsPC-1 cells),pIC50 (LOVO cells),pIC50 ([2]; 72 h)
> 146 µg/mL,> 140 µg/mL,6.00,4.78,6.48,C[C@@H]1CN(c2cc(O[C@@H](C)[C@@H]3CCCN3C)nc(-c3noc4c3CCC[C@@]43CCCc4sc(N)c(C#N)c43)n2)C[C@H](C)N1 [II-36],,,,,
> 144 µg/mL,> 130 µg/mL,6.66,6.06,6.49,C[C@H](Oc1cc(N2CC[C@H](N(C)C)C2)nc(-c2noc3c2CCC[C@@]32CCCc3sc(N)c(C#N)c32)n1)[C@@H]1C[C@@H](F)CN1C [II-15],,,,,
,,6.15,5.77,5.89,CN[C@H]1CCN(c2cc(O[C@@H](C)[C@@H]3CCCN3C)nc(-c3noc4c3CCC[C@@]43CCCc4sc(N)c(C#N)c43)n2)C1 [II-35],,,,,
> 143 µg/mL,> 137 µg/mL,6.26,6.40,6.36,C[C@H](Oc1cc(N2CC[C@H](N3CCCCC3)C2)nc(-c2noc3c2CCC[C@@]32CCCc3sc(N)c(C#N)c32)n1)[C@@H]1CCCN1C [II-12],,,,,
> 147 µg/mL,> 132 µg/mL,5.72,5.87,5.80,C[C@H]1CN(C)CCCN1c1cc(N2CC[C@H](N(C)C)C2)nc(-c2noc3c2CCC[C@@]32CCCc3sc(N)c(C#N)c32)n1 [II-16],,,,,
,,7.82,6.48,6.95,[2H]C([2H])([2H])N1C[C@H](F)C[C@H]1[C@H](C)Oc1cc(N2CCNC3(CC3)C2)nc(-c2noc3c2CCC[C@@]32CCCc3sc(N)c(C#N)c32)n1 [II-208],,,,,
,,5.85,6.13,6.28,C[C@H](Oc1cc(N2C[C@H]3CN(C)C[C@H]3C2)nc(-c2noc3c2CCC[C@@]32CCCc3sc(N)c(C#N)c32)n1)[C@@H]1CCCN1C [II-33],,,,,
,,6.67,7.13,7.18,C[C@H](Oc1cc([C@H]2CCN(C)C2)nc(-c2noc3c2CCC[C@@]32CCCc3sc(N)c(C#N)c32)n1)[C@@H]1CCCN1C [II-38],,,,,
